Reference: US9458203B2, “Integrin-blocking polypeptides and uses thereof” (priority 2011, dated 2016)
Several values for one entry are separate records, joined by “and”; a condition that tells them apart may be missing. Equal entries are not always repeated. Where two headings read alike, the source gives them in different places.

How the values were obtained:
[1] = test system: human umbilical vein endothelial cells (HUVECs); assay: inhibition of capillary formation of HUVECs (matrigel); type: cell-based; conditions: 10 μg/ml; for inhibition at 10 µg/mL: Homo sapiens, HUVEC, read-out: inhibition rate (%) of capillary formation
Protocol: Thawing 10 mg/mL matrigel (BD Company, USA) stocked at −20° C. overnight at 4° C., diluting it with HUVEC culture medium at the ratio of 1:1; smearing 30 μl of the solution on a 96-well plate (Greiner Company, USA), placing the plate at a 37 incubator for 1 h of aggregation. Digesting the HUVECs with 0.2% ethylene diamine tetraacetic acid (EDTA) when they reached the logarithmic phase; collecting the cells and washing them with PBS buffer twice, and then resuspending the cells with blank HUVEC culture medium. Counting the cells under a microscope, adjusting the cell concentration to 1×10^5 cells/ml. Preparing the testing solution for all groups, and diluting with blank HUVEC culture medium to 100 μl. Seeding the cells into the 96-well plate, 100 μl for each well, adding also the testing solution into each well and incubating the cells in 5% CO2 at 37° C. After 6 h, 12 h, 24 h, 36 h, 48 h, 60 h of incubation, randomly choosing 5 FOVs for each dose, photographing and counting the cells; calculating the number of capillary structures at different doses and analyzing the inhibition effect of polypeptide II and polypeptide III on HUVECs' differentiating into capillaries. The inhibition rate of capillary formation was calculated in accordance with the following formula: […]
wherein Ntest is the number of capillary structures in the test groups while Ncontrol is the number of capillary structures in the negative control group.

[2] = test system: human liver cancer SMMC-7721
Protocol: (§1) Taking a certain amount of vigorously growing tumor tissue, grinding the tumor tissue under sterile conditions and preparing cell suspension at the concentration of 1×10^7 cells/ml; then hypodermicaly inoculating 0.1 ml of the cell suspension into the right axillary region of nude mice. Keeping measuring the diameter of the transplanted tumor with a vernier caliper, and randomly dividing the mice into groups when the volume of the tumor reached 100-200 mm^3. Observing the dynamic effect of integrin-blocking polypeptides on inhibiting the growth of the tumor by means of documenting the change of tumor diameters. Measuring the tumor diameter once every other day and recording the body weight of mice simultaneously. Intravenously injecting polypeptides to mice from test groups while administering equal quantity of physiological saline to mice from the negative control group. The total medication period was 14 days. Avastin was adopted to set up a positive control group; it was administered through the tail vein once every three days while all other drugs were administered through the tail vein once a day. Leaving mice for a one-week rest after 14 days' medication, then (21 days after medication) killing the mice, surgically dissecting the tumors and measuring the weight of tumors. The tumor volume (TV) was calculated in accordance with the following formula: TV=½×a×b^2
(§2) Taxol used in the positive control group was administered once every 3 days through tail vein injection, while drugs of all other groups were administered on daily basis through tail vein injection.

[3] = test system: human rectal cancer Colo 320
Protocol: as §1, §2

[4] = test system: human endometrial cancer HHUA
Protocol: as §1, §2

melanoma B16F10 = assay: transplanted melanoma B16F10 in C57BL/6 black mice
Protocol: Hypodermically injecting polypeptides and other drugs into the left axillary region of mice from the experimental groups respectively while administering only equal quantity of physiological saline to the mice from the negative control group. The total medication period was 14 days, during which cyclophosphamide was administered once every other day, taxol once every three days, low-dose polypeptide twice a day and all other drugs once a day.

[5] = positive control, tail vein once every 3 days
[6] = taxol 10 mg/kg/time, once every 3 days, tail vein injection
[7] = 10 mg/kg/time, tail vein once every 3 days

Protocol for human brain tumor SF763: as §1, §2
Protocol for human lung cancer H460: as §1, §2

CC(=O)O[C@H]1C(=O)[C@@]2(C)[C@H]([C@H](OC(=O)c3ccccc3)[C@]3(O)C[C@H](OC(=O)[C@H](O)[C@@H](NC(=O)c4ccccc4)c4ccccc4)C(C)=C1C3(C)C)[C@]1(OC(C)=O)CO[C@@H]1C[C@@H]2O [taxol, reference compound]
body weight of animals, in words (human brain tumor SF763; mouse, in vivo): greatly reduced the body weight
toxic and side effects, in words (human brain tumor SF763; mouse, in vivo): more apparent toxic and side effects
inhibition rate on tumor (human brain tumor SF763; [5]): 76.29%
tumor inhibition rate (human brain tumor SF763; [6]): 76.29%
tumor weight (human brain tumor SF763; [6]): 0.28 ± 0.07 g
number of capillary structures (mean ± SD) ([1]; 6 h): 0.0 ± 0.0
number of capillary structures (mean ± SD) ([1]; 12 h): 0.0 ± 0.0
inhibition at 10 µg/mL ([1]; 6 h): 100%
inhibition at 10 µg/mL ([1]; 12 h): 100%
tumor inhibition rate [2, 7]: 78.10%
tumor weight [2, 7]: 0.28 ± 0.05 g
body weight of animals, in words ([2]; mouse, in vivo): greatly reduced the body weight
toxic and side effects, in words ([2]; mouse, in vivo): more apparent toxic and side effects
body weight of animals, in words ([3]; mouse, in vivo): greatly reduced the body weight
toxic and side effects, in words ([3]; mouse, in vivo): more apparent toxic and side effects
inhibition rate on tumor [3, 5]: 76.62%
tumor inhibition rate [3, 6]: 76.62%
tumor weight [3, 6]: 0.29 ± 0.07 g
tumor weight [4, 7]: 0.23 ± 0.07 g
body weight of animals, in words ([4]; mouse, in vivo): greatly reduced the body weight
toxic and side effects, in words ([4]; mouse, in vivo): more apparent toxic and side effects
tumor inhibition rate (human lung cancer H460; [7]): 68.21%
tumor weight (human lung cancer H460; [7]): 0.28 ± 0.07 g
body weight of animals, in words (human lung cancer H460; mouse, in vivo): greatly reduced the body weight
toxic and side effects, in words (human lung cancer H460; mouse, in vivo): more apparent toxic and side effects
tumor weight (melanoma B16F10; 10 mg/kg/time once every three days, hypodermic, 14 days): 0.77 ± 0.62 g and 0.98 ± 0.30 g
body weight of animals, in words (melanoma B16F10; mouse, in vivo): greatly reduced the body weight
toxic and side effects, in words (melanoma B16F10; mouse, in vivo): severer toxic and side effects
